Assay results from PubChem BioAssay (NCI).
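These data come from cells grown in 96-well plates and exposed to compound for 48 hours at five concentrations. Abbreviation: GI50, concentration required for 50% inhibition of growth. The concentration for full growth arrest is given as TGI.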 Where a SMILES comes first, the peptide text is derived from it.

What was measured:
Assay in all cases: inhibition of tumour cell growth, NCI panel, 48 h
HOP-92 NSCLC = tested on: HOP-92 NSCLC
UACC-62 melanoma = tested on: UACC-62 melanoma
SNB-19 CNS = tested on: SNB-19 CNS
HCT-15 colon = tested on: HCT-15 colon
SW-620 colon = tested on: SW-620 colon
T-47D breast = tested on: T-47D breast
MDA-MB-231 breast = tested on: MDA-MB-231 breast
NCI-H460 lung = tested on: NCI-H460 lung
MCF7 breast = tested on: MCF7 breast
SF-539 CNS = tested on: SF-539 CNS

Cc1ccc2c(c1)SSSSS2
TGI (HOP-92 NSCLC): 34.5 µM | TGI (UACC-62 melanoma): 36.2 µM | TGI (SNB-19 CNS): 48 µM | TGI (HCT-15 colon): 30 µM | TGI (SW-620 colon): 37.1 µM | TGI (T-47D breast): 29 µM | TGI (MDA-MB-231 breast): 59.1 µM | TGI (NCI-H460 lung): 32.5 µM | TGI (MCF7 breast): 43 µM

CC1C(c2ccc(F)cc2)c2cc3c(cc2OC1N1CCCC1)OCO3 (stereo unspecified)
TGI (HOP-92 NSCLC): 45.7 µM | TGI (UACC-62 melanoma): > 100 µM | TGI (SNB-19 CNS): > 100 µM | TGI (HCT-15 colon): > 100 µM | TGI (SF-539 CNS): > 100 µM | TGI (SW-620 colon): > 100 µM | TGI (T-47D breast): > 100 µM | TGI (MCF7 breast): > 100 µM

CC(=O)/C(C=Nc1c(C)n(C)n(-c2ccccc2)c1=O)=C(/C)O
TGI (HOP-92 NSCLC): > 100 µM | TGI (UACC-62 melanoma): > 100 µM | TGI (SNB-19 CNS): > 100 µM | TGI (HCT-15 colon): > 100 µM | TGI (SF-539 CNS): > 100 µM | TGI (SW-620 colon): > 100 µM | TGI (MDA-MB-231 breast): > 100 µM | TGI (MCF7 breast): > 100 µM

CCOC(=O)/C(C#N)=C/c1ccc2c(-c3c(OCC)ccc4cc(/C=C(\C#N)C(=O)OCC)ccc34)c(OCC)ccc2c1
TGI (HOP-92 NSCLC): > 100 µM | TGI (UACC-62 melanoma): > 100 µM | TGI (SNB-19 CNS): > 100 µM | TGI (HCT-15 colon): > 100 µM | TGI (SW-620 colon): > 100 µM | TGI (T-47D breast): > 100 µM | TGI (MDA-MB-231 breast): 56.1 µM | TGI (NCI-H460 lung): > 100 µM | TGI (MCF7 breast): > 100 µM

CC(C)(C)OC(=O)[N+](=N)C(=O)C1CCC(=O)N1C(=O)OCc1ccccc1 (stereo unspecified)
TGI (HOP-92 NSCLC): > 100 µM | TGI (UACC-62 melanoma): > 100 µM | TGI (SNB-19 CNS): > 100 µM | TGI (SW-620 colon): > 100 µM | TGI (T-47D breast): > 100 µM | TGI (MDA-MB-231 breast): > 100 µM | TGI (NCI-H460 lung): > 100 µM | TGI (MCF7 breast): > 100 µM

CC(=O)N=C(N=Nc1c(O)[nH]c2ccc(C)cc12)NC(C)=O
TGI (HOP-92 NSCLC): > 100 µM | TGI (UACC-62 melanoma): > 100 µM | TGI (SNB-19 CNS): > 100 µM | TGI (HCT-15 colon): > 100 µM | TGI (SW-620 colon): > 100 µM | TGI (T-47D breast): > 100 µM | TGI (MDA-MB-231 breast): > 100 µM | TGI (NCI-H460 lung): > 100 µM | TGI (MCF7 breast): > 100 µM

CCCCCC(CN1CCOCC1)C(=O)/C=C/c1ccccc1 (stereo unspecified)
TGI (HOP-92 NSCLC): 8.54 µM | TGI (UACC-62 melanoma): 3.37 µM | TGI (SNB-19 CNS): 13.2 µM | TGI (HCT-15 colon): 4.92 µM | TGI (SF-539 CNS): 4.71 µM | TGI (SW-620 colon): 3.33 µM | TGI (NCI-H460 lung): 11.1 µM

O=C(Cn1c(=O)ccn(C2OC(CO)C(O)C2F)c1=O)c1ccc(F)cc1 (stereo unspecified)
TGI (UACC-62 melanoma): > 100 µM | TGI (SNB-19 CNS): > 100 µM | TGI (HCT-15 colon): > 100 µM | TGI (SF-539 CNS): > 100 µM | TGI (SW-620 colon): > 100 µM | TGI (T-47D breast): > 100 µM | TGI (MDA-MB-231 breast): > 100 µM | TGI (NCI-H460 lung): > 100 µM | TGI (MCF7 breast): > 100 µM

CC1=C2C(O)C(C(C)C(=O)NCC(C)C)CCC2(C)C=CC1=O (stereo unspecified)
TGI (HOP-92 NSCLC): > 100 µM | TGI (UACC-62 melanoma): > 100 µM | TGI (SNB-19 CNS): > 100 µM | TGI (HCT-15 colon): > 100 µM | TGI (SF-539 CNS): > 100 µM | TGI (SW-620 colon): > 100 µM | TGI (NCI-H460 lung): > 100 µM | TGI (MCF7 breast): > 100 µM

CSC(SC)=C1CC(=O)Nc2ccccc2C1=O
TGI (HOP-92 NSCLC): 78.4 µM | TGI (UACC-62 melanoma): > 100 µM | TGI (SNB-19 CNS): > 100 µM | TGI (HCT-15 colon): > 100 µM | TGI (SF-539 CNS): > 100 µM | TGI (T-47D breast): 56.5 µM | TGI (MDA-MB-231 breast): > 100 µM | TGI (NCI-H460 lung): > 100 µM | TGI (MCF7 breast): > 100 µM

C[C@]12CC[C@@H]3c4ccc(O)cc4CC[C@H]3[C@@H]1C/C(=C\c1ccc([N+](=O)[O-])cc1)C2=O
TGI (UACC-62 melanoma): > 100 µM | TGI (SNB-19 CNS): > 100 µM | TGI (HCT-15 colon): > 100 µM | TGI (SF-539 CNS): 75 µM | TGI (SW-620 colon): > 100 µM | TGI (T-47D breast): > 100 µM | TGI (MDA-MB-231 breast): > 100 µM | TGI (NCI-H460 lung): > 100 µM | TGI (MCF7 breast): > 100 µM

CN(C1=NCCO1)c1cccc2ccccc12
TGI (UACC-62 melanoma): > 10 µM | TGI (SNB-19 CNS): > 10 µM | TGI (HCT-15 colon): > 10 µM | TGI (SF-539 CNS): > 10 µM | TGI (SW-620 colon): > 10 µM | TGI (T-47D breast): > 10 µM | TGI (MDA-MB-231 breast): > 10 µM | TGI (NCI-H460 lung): > 10 µM | TGI (MCF7 breast): > 10 µM

CC(=O)ON(OC(C)=O)c1ccc(C)cc1
TGI (HOP-92 NSCLC): > 100 µM | TGI (UACC-62 melanoma): > 100 µM | TGI (SNB-19 CNS): > 100 µM | TGI (HCT-15 colon): > 100 µM | TGI (SW-620 colon): > 100 µM | TGI (MDA-MB-231 breast): > 100 µM | TGI (NCI-H460 lung): > 100 µM | TGI (MCF7 breast): > 100 µM

Cc1[nH]c2ncn3nc(C(Cl)(Cl)Cl)nc3c2c1Cc1ccccc1
TGI (UACC-62 melanoma): > 100 µM | TGI (SNB-19 CNS): > 100 µM | TGI (HCT-15 colon): > 100 µM | TGI (SF-539 CNS): > 100 µM | TGI (SW-620 colon): > 100 µM | TGI (T-47D breast): > 100 µM | TGI (MDA-MB-231 breast): > 100 µM | TGI (NCI-H460 lung): > 100 µM | TGI (MCF7 breast): > 100 µM

O=c1c(O)c(-c2ccc(O)cc2O)oc2cc(O)cc(O)c12
TGI (HOP-92 NSCLC): > 100 µM | TGI (SNB-19 CNS): > 100 µM | TGI (HCT-15 colon): > 100 µM | TGI (SF-539 CNS): > 100 µM | TGI (SW-620 colon): > 100 µM | TGI (T-47D breast): > 100 µM | TGI (MDA-MB-231 breast): > 100 µM | TGI (NCI-H460 lung): > 100 µM | TGI (MCF7 breast): > 100 µM

NC(=O)NC(=O)c1cnccn1
TGI (HOP-92 NSCLC): > 100 µM | TGI (UACC-62 melanoma): > 100 µM | TGI (SNB-19 CNS): > 100 µM | TGI (HCT-15 colon): > 100 µM | TGI (SF-539 CNS): > 100 µM | TGI (SW-620 colon): > 100 µM | TGI (MDA-MB-231 breast): > 100 µM | TGI (NCI-H460 lung): > 100 µM | TGI (MCF7 breast): > 100 µM

CC1NC(=O)CNC(=O)CNC(=O)C(Cc2ccc(O)cc2)NC(=O)C(C(C)C)NC(=O)C(C)NC1=O (stereo unspecified) (cyclo(GGAAVY); configuration not given here)
GI50 (HOP-92 NSCLC): > 100 µM | TGI (HOP-92 NSCLC): > 100 µM | TGI (UACC-62 melanoma): > 100 µM | TGI (SNB-19 CNS): > 100 µM | TGI (HCT-15 colon): > 100 µM | TGI (SF-539 CNS): > 100 µM | TGI (SW-620 colon): > 100 µM | TGI (NCI-H460 lung): > 100 µM | TGI (MCF7 breast): > 100 µM

Cc1c(N2C(=O)/C(=C/C=C/c3ccccc3)N=C2c2ccccc2)c(=O)n(-c2ccccc2)n1C
TGI (HOP-92 NSCLC): 51.3 µM | TGI (UACC-62 melanoma): 32 µM | TGI (HCT-15 colon): 21 µM | TGI (SF-539 CNS): 47.1 µM | TGI (SW-620 colon): 99.4 µM | TGI (T-47D breast): > 100 µM | TGI (MDA-MB-231 breast): 47.3 µM | TGI (NCI-H460 lung): > 100 µM | TGI (MCF7 breast): > 100 µM

C=C(O)c1ccccc1C#Cc1ccccc1C(=O)OC
TGI (UACC-62 melanoma): > 10 µM | TGI (SNB-19 CNS): > 10 µM | TGI (HCT-15 colon): > 10 µM | TGI (SF-539 CNS): > 10 µM | TGI (SW-620 colon): > 10 µM | TGI (T-47D breast): > 10 µM | TGI (MDA-MB-231 breast): > 10 µM | TGI (NCI-H460 lung): > 10 µM | TGI (MCF7 breast): > 10 µM

CC(C)=CCC[C@]1(C)CC[C@]2(C)C3CCC(=C(C)C)[C@@H](CCCO)[C@]3(C)CC[C@@]2(C)C1 (stereo partly specified)
TGI (UACC-62 melanoma): > 100 µM | TGI (SNB-19 CNS): > 100 µM | TGI (HCT-15 colon): > 100 µM | TGI (SW-620 colon): > 100 µM | TGI (T-47D breast): 29.6 µM | TGI (MDA-MB-231 breast): > 100 µM | TGI (NCI-H460 lung): > 100 µM | TGI (MCF7 breast): 67.5 µM

Cc1cc2nc3n[nH]c(N)c3nc2cc1C
TGI (HOP-92 NSCLC): > 100 µM | TGI (UACC-62 melanoma): > 100 µM | TGI (SNB-19 CNS): > 100 µM | TGI (HCT-15 colon): > 100 µM | TGI (SW-620 colon): > 100 µM | TGI (MDA-MB-231 breast): > 100 µM | TGI (NCI-H460 lung): > 100 µM | TGI (MCF7 breast): > 100 µM

c1ccc(COc2ccc(CC3SCCCS3)cc2)cc1
TGI (HOP-92 NSCLC): 74.3 µM | TGI (UACC-62 melanoma): > 100 µM | TGI (SNB-19 CNS): > 100 µM | TGI (HCT-15 colon): > 100 µM | TGI (SW-620 colon): > 100 µM | TGI (T-47D breast): > 100 µM | TGI (MDA-MB-231 breast): > 100 µM | TGI (NCI-H460 lung): > 100 µM | TGI (MCF7 breast): > 100 µM

Cc1cc(-c2ccc(C(=O)O)[nH]2)on1
TGI (HOP-92 NSCLC): > 100 µM | TGI (UACC-62 melanoma): > 100 µM | TGI (SNB-19 CNS): > 100 µM | TGI (HCT-15 colon): > 100 µM | TGI (SW-620 colon): > 100 µM | TGI (MDA-MB-231 breast): > 100 µM | TGI (NCI-H460 lung): > 100 µM | TGI (MCF7 breast): > 100 µM

CC/C(=N\NC(=O)c1cccnc1)c1ccc2c(c1)OCCO2
TGI (UACC-62 melanoma): > 100 µM | TGI (SNB-19 CNS): > 100 µM | TGI (HCT-15 colon): > 100 µM | TGI (SF-539 CNS): > 100 µM | TGI (SW-620 colon): > 100 µM | TGI (T-47D breast): > 100 µM | TGI (MDA-MB-231 breast): > 100 µM | TGI (NCI-H460 lung): > 100 µM | TGI (MCF7 breast): > 100 µM
